Data on 41 molecules can be found in US8541457B2, “Aminothiazole derivatives as human stearoyl-CoA desaturase inhibitors” (Xenon Pharmaceuticals Inc., priority 2005, dated 2013).

Where only a bound is given, the exact number is not on record here.

As usually defined, the melting point is the temperature of the solid-liquid transition. The molecule `Cc1nc(NC(=O)c2ccc(F)cc2Cl)sc1C(=O)NCc1ccccc1` [Example 2.20, 2-(2-Chloro-4-fluorobenzoylamino)-4-methylthiazole-5-carboxylic Acid Benzylamide] yielded a melting point of 95 to 96 °C.

`Cc1nc(NC(=O)c2cccc(C#N)c2)sc1C(=O)NCc1ccccc1` [Example 2.26, 2-(3-Cyanobenzoylamino)-4-methylthiazole-5-carboxylic Acid Benzylamide] returned a melting point of 207 to 208 °C.

`CCC(=O)Nc1nc(C)c(C(=O)NCc2ccccc2)s1` [Example 2.1, 4-Methyl-2-propionylaminothiazole-5-carboxylic Acid Benzylamide]: the melting point was 175 to 176 °C.

With `Cc1nc(NC(=O)c2cc(Cl)cc(Cl)c2)sc1C(=O)NCc1ccccc1` [Example 2.24, 2-(3,5-Dichlorobenzoylamino)-4-methylthiazole-5-carboxylic Acid Benzylamide], the melting point lay in the range of 104 to 105 °C.

Molecule `Cc1nc(NC(=O)c2ccc(-c3nn[nH]n3)cc2)sc1C(=O)NCc1ccccc1` [Example 6, 4-Methyl-2-[4-(2H-tetrazol-5-yl)benzoylamino]thiazole-5-carboxylic Acid Benzylamide] gave a melting point greater than 300 °C.

As to `Cc1nc(NC(=O)c2cccc(Cl)c2)sc1C(=O)NCc1ccccc1` [Example 2.19, 2-(3-Chlorobenzoylamino)-4-methylthiazole-5-carboxylic Acid Benzylamide], the melting point lay within 178 to 179 °C.

Regarding `Cc1nc(NC(=O)c2ccccc2)sc1C(=O)NCc1cccc(F)c1` [Example 7.2, 2-Benzoylamino-4-methylthiazole-5-carboxylic Acid 3-Fluorobenzylamide], the melting point was in the range of 216 to 217 °C.

Molecule `Cc1nc(NC(=O)c2ccc(C#N)cc2)sc1C(=O)NCc1ccccc1` [Example 2.25, 2-(4-Cyanobenzoylamino)-4-methylthiazole-5-carboxylic Acid Benzylamide] had a melting point of 256 to 258 °C.

For the molecule `Cc1nc(NC(=O)c2ccccc2)sc1C(=O)NCc1ccc(F)cc1` [Example 7.6, 2-Benzoylamino-4-methylthiazole-5-carboxylic Acid 4-Fluorobenzylamide], the melting point was in the range of 206 to 208 °C.

The molecule `Cc1ccc(S(=O)(=O)Nc2nc(C)c(C(=O)NCc3ccccc3)s2)cc1` [Example 2.42, 4-Methyl-2-(toluene-4-sulfonylamino)thiazole-5-carboxylic Acid Benzylamide] had a melting point of 242 to 245 °C.

As to `Cc1nc(NC(=O)c2ccccc2OC(F)(F)F)sc1C(=O)NCc1ccccc1` [Example 2.21, 4-Methyl-2-(2-trifluoromethoxybenzoylamino)thiazole-5-carboxylic Acid Benzylamide], the melting point lay within 140 to 141 °C.

`Cc1nc(NC(=O)c2ccccc2)sc1C(=O)NNC(=O)c1ccccc1` [Example 9, N-(5-(2-Benzoylhydrazinecarbonyl)-4-methylthiazol-2-yl)benzamide] gave a melting point of 258 to 260 °C.

In turn, `Cc1nc(NC(=O)c2cccc(S(C)(=O)=O)c2)sc1C(=O)NCc1ccccc1` [Example 2.35, 2-(3-Methanesulfonylbenzoylamino)-4-methylthiazole-5-carboxylic Acid Benzylamide] yielded a melting point of 111 to 113 °C.

`Cc1nc(NC(=O)c2ccccc2)sc1C(=O)n1ccnc1` [Example 10, N-(5-(1H-Imidazole-1-carbonyl)-4-methylthiazol-2-yl)benzamide]: the melting point was 228 to 231 °C.

In turn, `Cc1nc(NC(=O)c2ccccc2)sc1C(=O)NCc1ccccc1C(F)(F)F` [Example 7.5, 2-Benzoylamino-4-methylthiazole-5-carboxylic Acid 2-Trifluoromethylbenzylamide] showed a melting point of 198 to 199 °C.

The molecule `Cc1nc(NC(=O)c2ccc(Cl)c(Cl)c2)sc1C(=O)NCc1ccccc1` [Example 2.37, 2-(3,4-Dichlorobenzoylamino)-4-methylthiazole-5-carboxylic Acid Benzylamide] came in with a melting point of 212 to 214 °C.

For `Cc1nc(NC(=O)c2ccccc2S(C)(=O)=O)sc1C(=O)NCc1ccccc1` [Example 2.36, 2-(2-Methanesulfonylbenzoylamino)-4-methylthiazole-5-carboxylic Acid Benzylamide], the melting point was in the range of 239 to 242 °C.

On to `Cc1nc(NC(=O)c2cccc(F)c2)sc1C(=O)NCc1ccccc1` [Example 2.31, 2-(3-Fluorobenzoylamino)-4-methylthiazole-5-carboxylic Acid Benzylamide], for which the melting point is 162 to 165 °C.

`Cc1nc(NC(=O)c2ccncc2)sc1C(=O)NCc1ccccc1` [Example 1, N-(5-Benzylcarbamoyl-4-methylthiazol-2-yl)isonicotinamide] gave a melting point of 171 to 172 °C.

`Cc1nc(NC(=O)c2cccc(OC(F)(F)F)c2)sc1C(=O)NCc1ccccc1` [Example 2.28, 4-Methyl-2-(3-trifluoromethoxybenzoylamino)thiazole-5-carboxylic Acid Benzylamide]: the melting point was in the range of 230 to 232 °C.

In turn, `Cc1nc(NC(=O)Nc2ccc(Cl)cc2)sc1C(=O)NCc1ccccc1` [Example 4.2, 2-[3-(4-Chlorophenyl)ureido]-4-methylthiazole-5-carboxylic Acid Benzylamide] came in with a melting point greater than 300 °C.

The molecule `Cc1nc(NC(=O)c2cccc3ccccc23)sc1C(=O)NCc1ccccc1` [Example 2.23, 4-Methyl-2-[(naphthalene-1-carbonyl)amino]thiazole-5-carboxylic Acid Benzylamide] had a melting point of 99 to 101 °C.

Regarding `Cc1nc(NC(=O)CCc2ccccc2)sc1C(=O)NCc1ccccc1` [Example 2.40, 4-Methyl-2-(3-phenylpropionylamino)thiazole-5-carboxylic Acid Benzylamide], the melting point was 63 to 65 °C.

Molecule `Cc1nc(NC(=O)c2ccccc2)sc1C(=O)NCc1ccccc1Cl` [Example 7.4, 2-Benzoylamino-4-methylthiazole-5-carboxylic acid 2-chlorobenzylamide] displayed a melting point of 191 to 193 °C.

Molecule `Cc1nc(NC(=O)CC2CC2)sc1C(=O)NCc1ccccc1` [Example 2.41, 2-(2-Cyclopropylacetylamino)-4-methylthiazole-5-carboxylic Acid Benzylamide] came in with a melting point of 136 to 139 °C.

For `Cc1nc(NC(=O)c2ccc(S(C)(=O)=O)cc2)sc1C(=O)NCc1ccccc1` [Example 2.38, 2-(4-Methanesulfonylbenzoylamino)-4-methylthiazole-5-carboxylic Acid Benzylamide], the melting point is 262 to 265 °C.

`Cc1nc(NC(=O)Nc2ccccc2)sc1C(=O)NCc1ccccc1` [Example 4, 4-Methyl-2-(3-phenylureido)thiazole-5-carboxylic Acid Benzylamide] gave a melting point greater than 300 °C.

`Cc1nc(NC(=O)c2cc(Cl)ccc2F)sc1C(=O)NCc1ccccc1` [Example 2.30, 2-(5-Chloro-2-fluorobenzoylamino)-4-methylthiazole-5-carboxylic Acid Benzylamide]: the melting point lay in the range of 175 to 178 °C.

As for `O=C(Nc1nc(Cl)c(C(=O)NCc2ccccc2)s1)c1ccccc1` [Example 3.1, 2-Benzoylamino-4-chlorothiazole-5-carboxylic Acid Benzylamide], the melting point lay within 247 to 249 °C.

Regarding `COc1cc(C(=O)Nc2nc(C)c(C(=O)NCc3ccccc3)s2)ccn1` [Example 13, N-Benzyl-2-(2-methoxyisonicotinamido)-4-methylthiazole-5-carboxamide], the melting point lay within 188 to 190 °C.

With `Cc1nc(NC(=O)c2ccn(-c3ccccc3)c(=O)c2)sc1C(=O)NCc1ccccc1` [Example 15, N-Benzyl-4-methyl-2-(2-oxo-1-phenyl-1,2-dihydropyridine-4-carboxamido)thiazole-5-carboxamide], the melting point is 260 to 262 °C.

For `Cc1nc(NC(=O)c2ccccc2)sc1C(=O)NCC1CC1` [Example 7, 2-Benzoylamino-4-methylthiazole-5-carboxylic Acid Cyclopropylmethylamide], the melting point lay within 163 to 166 °C.

In the case of `Cc1nc(NCc2ccccc2)sc1C(=O)NCc1ccccc1` [Example 8, 2-Benzylamino-4-methylthiazole-5-carboxylic Acid Benzylamide], the melting point lay in the range of 169 to 172 °C.

`COc1cccc(C(=O)Nc2nc(C)c(C(=O)NCc3ccccc3)s2)c1` [Example 2.34, 2-(3-Methoxybenzoylamino)-4-methylthiazole-5-carboxylic Acid Benzylamide]: the melting point was 75 to 77 °C.

Consider `Cc1nc(NC(=O)c2cc(F)cc(F)c2)sc1C(=O)NCc1ccccc1` [Example 2.29, 2-(3,5-Difluorobenzoylamino)-4-methylthiazole-5-carboxylic Acid Benzylamide], for which the melting point was 84 to 86 °C.

Regarding `CCC(NC(=O)c1sc(NC(=O)c2ccccc2)nc1C)c1ccccc1` (centres unmarked) [Example 3, 2-Benzoylamino-4-methylthiazole-5-carboxylic Acid (1-Phenylpropyl)amide], the melting point was in the range of 87 to 89 °C.

`Cc1nc(NC(=O)Cc2ccccc2)sc1C(=O)NCc1ccccc1` [Example 2.39, 4-Methyl-2-phenylacetylaminothiazole-5-carboxylic Acid Benzylamide]: the melting point was 63 to 65 °C.

`Cc1nc(NC(=O)c2ccccc2)sc1C(=O)NCc1cccc(Cl)c1` [Example 7.1, 2-Benzoylamino-4-methylthiazole-5-carboxylic Acid 3-Chlorobenzylamide] showed a melting point of 198 to 199 °C.

`Cc1nc(NC(=O)c2ccc(OC(F)(F)F)cc2)sc1C(=O)NCc1ccccc1` [Example 2.32, 4-Methyl-2-(4-trifluoromethoxybenzoylamino)thiazole-5-carboxylic Acid Benzylamide] returned a melting point of 168 to 170 °C.

For the molecule `Cc1nc(NC(=O)Nc2ccc(F)cc2)sc1C(=O)NCc1ccccc1` [Example 4.1, 2-[3-(4-Fluorophenyl)ureido]-4-methylthiazole-5-carboxylic Acid Benzylamide], the melting point was greater than 300 °C.

`Cc1nc(NC(=O)c2cccc(C(F)(F)F)c2)sc1C(=O)NCc1ccccc1` [Example 2.22, 4-Methyl-2-(3-trifluoromethylbenzoylamino)thiazole-5-carboxylic Acid Benzylamide]: the melting point was in the range of 195 to 196 °C.
